Source: article PMC4039064, “An inhibitor-driven study for enhancing the selectivity of indirubin derivatives towards leishmanial Glycogen Synthase Kinase-3 over leishmanial cdc2-related protein kinase 3” (Parasites & Vectors, 2014)

Experiments:
[1] = biological target: T1, LCRK3 (cdc2-related protein kinase 3) (Leishmania mexicana, UniProt O15851); assay: luminescent kinase assay (Promega); assay type: biochemical; conditions: read-out: L CRK3
T1 construct: gene crk3; recombinant, purified from transgenic L. mexicana promastigotes (homologous expression, gift of K. Grant)
T1 sequence (O15851 1-311): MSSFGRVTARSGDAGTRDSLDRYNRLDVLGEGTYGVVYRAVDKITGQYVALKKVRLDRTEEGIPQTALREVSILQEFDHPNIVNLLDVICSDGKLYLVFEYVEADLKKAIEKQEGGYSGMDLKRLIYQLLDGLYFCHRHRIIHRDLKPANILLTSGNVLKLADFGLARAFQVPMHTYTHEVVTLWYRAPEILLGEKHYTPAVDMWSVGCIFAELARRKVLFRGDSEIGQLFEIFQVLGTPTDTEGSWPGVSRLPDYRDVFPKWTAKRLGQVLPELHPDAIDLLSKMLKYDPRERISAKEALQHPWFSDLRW

[2] = biological target: T2, LGSK-3 (leishmanial Glycogen Synthase Kinase-3 short) (Leishmania donovani, UniProt A6N857); assay: luminescent kinase assay (Promega); assay type: biochemical; conditions: read-out: L GSK-3
T2 construct: recombinant, purified from L. donovani over-expressing transfectants (homologous expression); A6N857 is printed for the L. donovani homology model and alignment
T2 sequence (A6N857 1-355): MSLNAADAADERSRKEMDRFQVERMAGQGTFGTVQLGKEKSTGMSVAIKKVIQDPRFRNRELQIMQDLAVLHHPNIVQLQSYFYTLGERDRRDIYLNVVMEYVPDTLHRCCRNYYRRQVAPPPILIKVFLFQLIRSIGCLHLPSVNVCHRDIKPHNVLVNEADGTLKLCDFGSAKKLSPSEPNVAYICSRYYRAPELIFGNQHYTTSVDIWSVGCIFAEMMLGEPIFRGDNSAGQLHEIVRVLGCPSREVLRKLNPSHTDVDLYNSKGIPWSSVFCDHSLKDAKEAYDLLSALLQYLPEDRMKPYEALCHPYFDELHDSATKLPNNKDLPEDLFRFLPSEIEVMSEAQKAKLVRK

SMILES: Cc1cc2c(cc1Br)NC(=O)C2=C1Nc2ccccc2C1=NO [5-Me-6-BIO, 5-methyl-6-bromoindirubin-3′-oxime]
- IC50 [1]: 650 ± 90 nM
- IC50 [2]: 90 ± 20 nM
